Results reported in patent US7071206B2, “Agents for treating neurodegenerative disorders” (Medivation, Inc., priority 1995, dated 2006).
Where “and” joins values, the source holds several entries; their conditions need not be identical. Equal values may be shown once.

System: patients suffering from Alzheimer's disease
Experiment: Clinical trial of dimebon tablets, inventors' scale (E. E. Bukatina et al.; 0 = absence of a symptom, 4 = greatest manifestation)
Assay type: in vivo, human
Details: for mean value of delirium manifestations: 10 patients with delirious symptoms prior to treatment; for mean value of depressive manifestations: 12 patients with depressive manifestations; for Item 1 (orientation in locality, time, immediate surroundings and one's own personality): mean value / Item 2 (orientation in space): mean value / Item 3 (memory for the past): mean value / Item 4 (memory for the present): mean value / Item 5 (life in the past): mean value / Item 6a (speech): mean value / Item 6b (difficulty in finding words, and distortion of words): mean value / Item 6g (speech): mean value / Item 7 (concentration of attention): mean value / Item 8b (low spirits): mean value / Item 9 (delirium): mean value / Item 13 (irritability): mean value / Item 14 (anxiety): mean value / Item 15 (asthenia): mean value / Item 16 (headaches): mean value / Item 17 (dizziness): mean value / Item 18 (tearfulness): mean value / Item 19 (spontaneous activity): mean value / Item 20 (elementary self-service): mean value: mean of 14 patients
Experimental: The test was carried out under the direct supervision by two of the inventors, namely E. E. Bukatina and V. Grigorieva, in 14 patients who agreed to take part in the tests, 13 of whom lived in a boarding house for senile persons and one patient lived with their family.
Alzheimer's disease was diagnosed on the basis of criteria ICD-10 NINCDS ADRDA.
Dimebon in the form of tablets (comprising 10 mg of dimebon, 30 mg of lactose, 5 mg of magnesium stearate was prescribed for oral administration in a dose of 0.02 g three to times a day. The patients living in the boarding house received dimebon for 58 days. A patient (observation 14) who was under outpatient observation continued taking the agent for a month after the completion of the tests.
Before the treatment with dimebon, and at 4 and 8 weeks after treatment the patients were examined according to Hazegawa's scale and the inventors' scale (“Social and Clinical Psychiatry”, 1992, No.4, pp.29–37) which includes the following indexes: (1) orientation in locality, time, immediate surroundings and one's own personality; (2) orientation in space; (3) memory for the past; (4) memory for the present; (5) “life in the past”; (6) (a) articulation, (b) difficulty in finding words, and distortion of words; (c) naming of objects; (d) following instructions; (7) concentration (of attention); (8) an affective sphere; (a) high spirits, (b) low spirits; (9) delirium; (10) hearing hallucinations; (11) visual hallucinations; (12) senile or senile-like confusion (when motion anxiety is accompanied by the revival of the past experience); (13) irritability; (14) anxiety; (15) asthenia; (16) headaches; (17) dizziness; (18) tearfulness; (19) spontaneous activity; (20) elementary self-service; and (21 control of sphincters.
According to the Hazegawa's scale, the 0 score indicates the poorest result; on the contrary, according to the inventors' scale, the 0 score indicates the absence of a symptom 4 score indicates the greatest manifestation thereof. […] Before the therapy was started, the patients had been independently examined by two doctors who used the inventors' scale. The examination during the treatment was carried out by the doctors using both the scales. The evaluation according to all the inventors' scale points during all the tests and their variations during the treatment with dimebon are given in the Appendix.
According to the inventors' scale, the degree of the disturbance if the cognitive functions was determined by a sum of evaluations according to the first 5 scale points reflecting the condition of memory, orientation and relation with the reality. The disturbance of speech was dealt with separately and was determined by a sum of evaluations according to items 6b-6d.
Both absolute evaluations of the signs under investigation (the evaluation prior to treatment is a mean evaluation of the two examinations) and variations in them were analysed in the course of therapy. In doing so, only those changes that were beyond the range of evaluations obtained in two pre-treatment examinations were taken into consideration.
The test results reflected the condition of the patients at the time of the examination. Any changes in the metal state observed in the interval between the tests and disappearing by the moment of examination according to the scale were described in the section “Clinical Observations”.
The statistical data processing was carried out by means of Student's t-test and Fisher's “Fi” criterion.

[1] = after 4 weeks vs two examinations prior to treatment, + improvement, − deterioration
[2] = after 8 weeks vs two examinations prior to treatment, + improvement, − deterioration
[3] = change at 4 weeks vs K1, K2, per patient, listed as dimebon

Cc1ccc2c(c1)c1c(n2CCc2ccc(C)nc2)CCN(C)C1 [No. 10, 2,8-dimethyl-5-[2-(6-methyl-3-pyridyl)ethyl]-2,3,4,5-tetrahydro-1H-pyrido[4,3-b]indole]
Cognitive functions (first 5 scale points): no variations, % (4 weeks): 81.4%
Cognitive functions (first 5 scale points): no variations, abs. (4 weeks): 57
Cognitive functions: X (no variations in the function prior to and during the treatment), % (4 weeks): 7.1%
Cognitive functions: X (no variations in the function prior to and during the treatment), abs. (4 weeks): 5
Speech functions (items 6b, c, d): no variations, % (4 weeks): 54.8%
Speech functions (items 6b, c, d): no variations, abs. (4 weeks): 23
Speech functions: X (no variations in the function prior to and during the treatment), % (4 weeks): 33.3%
Speech functions: X (no variations in the function prior to and during the treatment), abs. (4 weeks): 14
Cognitive functions (first 5 scale points): no variations, % (8 weeks): 53.6%
Cognitive functions (first 5 scale points): no variations, abs. (8 weeks): 41
Cognitive functions: X (no variations in the function prior to and during the treatment), % (8 weeks): 7.1%
Cognitive functions: X (no variations in the function prior to and during the treatment), abs. (8 weeks): 5
Speech functions (items 6b, c, d): no variations, % (8 weeks): 45.2%
Speech functions (items 6b, c, d): no variations, abs. (8 weeks): 19
Speech functions: X (no variations in the function prior to and during the treatment), % (8 weeks): 30.95%
Speech functions: X (no variations in the function prior to and during the treatment), abs. (8 weeks): 13
mean value of delirium manifestations (4 weeks): 0.8±0.33
mean value of delirium manifestations (8 weeks): 0.7±0.27
mean value of depressive manifestations (after 4 weeks): 0.58±0.18 score
mean value of depressive manifestations (after 8 weeks): 0.58±0.14 score
cognitive functions (Hazegawa's scale and inventor's scale), conclusion (14 patients, especially patients with mild dementia): significant improvement in cognitive functions
mean score of tearfulness (after 4 weeks): 0.2±0.18
Item 1 (orientation in locality, time, immediate surroundings and one's own personality): change during the course of the therapy [1]: +0.11 +/− 0.07 scores
Item 2 (orientation in space): change during the course of the therapy [1]: +0.11 +/− 0.07 scores
Item 3 (memory for the past): change during the course of the therapy [1]: +0.07 +/− 0.07 scores
Item 4 (memory for the present): change during the course of the therapy [1]: 0 +/− 0 scores
Item 5 (life in the past): change during the course of the therapy [1]: +0.14 +/− 0.08 scores
Item 6a (speech): change during the course of the therapy [1]: +0.11 +/− 0.07 scores
Item 6b (difficulty in finding words, and distortion of words): change during the course of the therapy [1]: 0 +/− 0 scores
Item 6g (speech): change during the course of the therapy [1]: −0.07 +/− 0.12 scores
Item 7 (concentration of attention): change during the course of the therapy [1]: 0 +/− 0.5 scores
Item 8b (low spirits): change during the course of the therapy [1]: +0.41 +/− 0.17 scores
Item 9 (delirium): change during the course of the therapy [1]: +0.07 +/− 0.09 scores
Item 13 (irritability): change during the course of the therapy [1]: +0.29 +/− 0.13 scores
Item 14 (anxiety): change during the course of the therapy [1]: −0.04 +/− 0.13 scores
Item 15 (asthenia): change during the course of the therapy [1]: −0.11 +/− 0.09 scores
Item 16 (headaches): change during the course of the therapy [1]: +0.54 +/− 0.21 scores
Item 17 (dizziness): change during the course of the therapy [1]: −0.14 +/− 0.17 scores
Item 18 (tearfulness): change during the course of the therapy [1]: −0.14 +/− 0.14 scores
Item 19 (spontaneous activity): change during the course of the therapy [1]: 0 +/− 0 scores
Item 20 (elementary self-service): change during the course of the therapy [1]: +0.07 +/− 0.07 scores
Item 1 (orientation in locality, time, immediate surroundings and one's own personality): mean value (after 4 weeks): 1.75 +/− 0.23 scores
Item 2 (orientation in space): mean value (after 4 weeks): 0.32 +/− 0.15 scores
Item 3 (memory for the past): mean value (after 4 weeks): 2.29 +/− 0.21 scores
Item 4 (memory for the present): mean value (after 4 weeks): 2.21 +/− 0.22 scores
Item 5 (life in the past): mean value (after 4 weeks): 1.75 +/− 0.27 scores
Item 6a (speech): mean value (after 4 weeks): 0.71 +/− 0.21 scores
Item 6b (difficulty in finding words, and distortion of words): mean value (after 4 weeks): 0.43 +/− 0.17 scores
Item 6g (speech): mean value (after 4 weeks): 0.46 +/− 0.16 scores
Item 7 (concentration of attention): mean value (after 4 weeks): 1.75 +/− 0.26 scores
Item 8b (low spirits): mean value (after 4 weeks): 0.5 +/− 0.16 scores
Item 9 (delirium): mean value (after 4 weeks): 0.57 +/− 0.29 scores
Item 13 (irritability): mean value (after 4 weeks): 0.21 +/− 0.15 scores
Item 14 (anxiety): mean value (after 4 weeks): 0.29 +/− 0.12 scores
Item 15 (asthenia): mean value (after 4 weeks): 0.18 +/− 0.1 scores
Item 16 (headaches): mean value (after 4 weeks): 0.32 +/− 0.21 scores
Item 17 (dizziness): mean value (after 4 weeks): 0.71 +/− 0.27 scores
Item 18 (tearfulness): mean value (after 4 weeks): 0.07 +/− 0.07 scores
Item 19 (spontaneous activity): mean value (after 4 weeks): 1.29 +/− 0.22 scores
Item 20 (elementary self-service): mean value (after 4 weeks): 0.07 +/− 0.07 scores
mean score of tearfulness (after 8 weeks): 0±0.0
number of patients with signs of aggravation of depression (after 8 weeks): One
tearfulness (after 8 weeks): not a single female patient suffered from tearfulness
Item 1 (orientation in locality, time, immediate surroundings and one's own personality): change during the course of the therapy [2]: +0.18 +/− 0.08 scores
Item 2 (orientation in space): change during the course of the therapy [2]: +0.11 +/− 0.07 scores
Item 3 (memory for the past): change during the course of the therapy [2]: +0.29 +/− 0.1 scores
Item 4 (memory for the present): change during the course of the therapy [2]: _0.29 +/− 0.08 scores
Item 5 (life in the past): change during the course of the therapy [2]: _0.29 +/− 0.1 scores
Item 6a (speech): change during the course of the therapy [2]: +0.14 +/− 0.08 scores
Item 6b (difficulty in finding words, and distortion of words): change during the course of the therapy [2]: −0.04 +/− 0.03 scores
Item 6g (speech): change during the course of the therapy [2]: −0.07 +/− 0.18 scores
Item 7 (concentration of attention): change during the course of the therapy [2]: −0.04 +/− 0.06 scores
Item 8b (low spirits): change during the course of the therapy [2]: +0.43 +/− 0.2 scores
Item 9 (delirium): change during the course of the therapy [2]: +0.25 +/− 0.17 scores
Item 13 (irritability): change during the course of the therapy [2]: +0.36 +/− 0.16 scores
Item 14 (anxiety): change during the course of the therapy [2]: +0.07 +/− 0.09 scores
Item 15 (asthenia): change during the course of the therapy [2]: 0 +/− 0 scores
Item 16 (headaches): change during the course of the therapy [2]: +0.21 +/− 0.1 scores
Item 17 (dizziness): change during the course of the therapy [2]: −0.18 +/− 0.22 scores
Item 18 (tearfulness): change during the course of the therapy [2]: +0.21 +/− 0.15 scores
Item 19 (spontaneous activity): change during the course of the therapy [2]: +0.04 +/− 0.11 scores
Item 20 (elementary self-service): change during the course of the therapy [2]: 0 +/− 0.1 scores
Item 1 (orientation in locality, time, immediate surroundings and one's own personality): mean value (after 8 weeks): 1.57 +/− 0.23 scores
Item 2 (orientation in space): mean value (after 8 weeks): 0.25 +/− 0.13 scores
Item 3 (memory for the past): mean value (after 8 weeks): 1.93 +/− 0.24 scores
Item 4 (memory for the present): mean value (after 8 weeks): 1.86 +/− 0.23 scores
Item 5 (life in the past): mean value (after 8 weeks): 1.57 +/− 0.27 scores
Item 6a (speech): mean value (after 8 weeks): 0.54 +/− 0.21 scores
Item 6b (difficulty in finding words, and distortion of words): mean value (after 8 weeks): 0.39 +/− 0.2 scores
Item 6g (speech): mean value (after 8 weeks): 0.54 +/− 0.19 scores
Item 7 (concentration of attention): mean value (after 8 weeks): 1.75 +/− 0.3 scores
Item 8b (low spirits): mean value (after 8 weeks): 0.46 +/− 0.14 scores
Item 9 (delirium): mean value (after 8 weeks): 0.5 +/− 0.19 scores
Item 13 (irritability): mean value (after 8 weeks): 0.14 +/− 0.09 scores
Item 14 (anxiety): mean value (after 8 weeks): 0.18 +/− 0.1 scores
Item 15 (asthenia): mean value (after 8 weeks): 0.04 +/− 0.03 scores
Item 16 (headaches): mean value (after 8 weeks): 0.64 +/− 0.24 scores
Item 17 (dizziness): mean value (after 8 weeks): 0.68 +/− 0.25 scores
Item 18 (tearfulness): mean value (after 8 weeks): 0.14 +/− 0.14 scores
Item 19 (spontaneous activity): mean value (after 8 weeks): 1.18 +/− 0.27 scores
Item 20 (elementary self-service): mean value (after 8 weeks): 0.14 +/− 0.4 scores
impairments according to the first 5 scale points (cognitive functions) (both after 4-week and 8-week treatment): lack of impairments
20. Elementary self-service, Changes (4 weeks) (change at 4 weeks vs K1, K2, per patient): +1
2. Orientation in space, Changes (4 weeks) [3]: −0.5
5. Life in the past, Changes (4 weeks) [3]: +0.5 (2×) and +1
6c. Naming of objects, Changes (4 weeks) [3]: +0.5 and −1
7. Concentration, Changes (4 weeks) [3]: +0.5 and −0.5
8b. Lower spirits, Changes (4 weeks) [3]: +0.5 (3×) and +2 and +1
9. Delirium, Changes (4 weeks) [3]: +0.5 and +1 and −0.5
13. Irritability, Changes (4 weeks) [3]: +1.5 and +1 (2×) and +0.5
14. Anxiety, Changes (4 weeks) [3]: +0.5 and +1 and −1 (2×)
15. Asthenia, Changes (4 weeks) [3]: −0.5 and −1
16. Headache, Changes (4 weeks) [3]: +1 (2×) and +2 (2×) and −1.5
17. Dizziness, Changes (4 weeks) [3]: +1 and −1 and −2
18. Tearfulness, Changes (4 weeks) [3]: +2 and 0
6d. Performing instructions, Changes (4 weeks) [3]: −1 and +1 (2×)
1. Orientation in locality and time, Changes (4 weeks) (change at 4 weeks vs K1, K2 prior to treatment, + improvement, − deterioration, — no change, per patient, listed as dimebon): +1 and +0.5
1. Orientation in locality and time, Changes (8 weeks) (change at 8 weeks vs K1, K2, + improvement, − deterioration, — no change, per patient, listed as dimebon): +1 and +0.5 (3×)
